Here are results for five compounds from EPA's ToxValDB 9.5.

Data set [1] deals with Rattus norvegicus. As to conditions: for LC50 / LD50: acute.
Data set [2] relates to Mus musculus. As to conditions: for LD50 / LC50: acute; for NOAEL: duration: 10 days, oral, gavage, NMRI.
The test system of the next data set is Oryctolagus sp. The settings on record: dermal; for LD50: acute.
A further data set concerns Cavia porcellus. The settings on record: acute; Inhalation; Guinea Pig.
The next data set has as its system Cavia sp. The settings on record: acute; Inhalation; Harley.
In data set [3] the test system is Rattus norvegicus. The settings on record: chronic; oral; diet; M/F; liver toxicity.
Data set [4] deals with Canidae. The settings on record: chronic, oral, Beagle.
Data set [5] concerns Rattus norvegicus. The settings on record: chronic; duration: 2 years; oral; diet; M/F; Osborne-Mendel; hepatic.
The subject of data set [6] is Mus musculus. The settings on record: developmental; duration: 7 days; oral; gavage; M/F; ICR; developmental.
Data set [7] deals with Rattus norvegicus. The settings on record: repeat dose other; oral.
For data set [8], the system named is Canidae. As to conditions: chronic; duration: 9 years; oral; capsule; F; Beagle; hepatic.
Data set [9] deals with Mus musculus. Briefly: LD0; higher = less toxic. The settings on record: acute; oral.
Data set [10] deals with Homo sapiens. As to conditions: clinical; duration: 10 weeks; oral; diet; Blood: Decreased blood enzyme.
Data set [11] deals with Homo sapiens. The settings on record: clinical; oral; M/F; decreased erythrocyte cu, zn-superoxide dismutase (esod) activity in healthy adult male and female volunteers.
In data set [12] the test system is Homo sapiens. As to conditions: clinical, duration: 10 weeks, oral, F, hematological.
For data set [13], the system named is Homo sapiens. As to conditions: clinical; oral; M/F; No significant adverse effects.
Data set [14] deals with Rattus norvegicus. As to conditions: short-term; duration: 28 days; oral; gavage; M/F; Sprague-Dawley; Urinalysis: N/A(measured only 16h volume) + Absolute Organ Weight: Liver increase + Relative Organ Weight: Liver increase + Necropsy: Kidney….
The test system of the next data set is Cricetulus sp. As to conditions: acute; oral; Chinese.
Data set [15] has as its system Canidae. The settings on record: subchronic; duration: 3 months; oral; diet; Beagle.
Setting [16] is: subchronic, duration: 3 months, oral, diet.

The structures appear in SMILES notation. Several values for one entry are separate records, joined by “and”; a condition that tells them apart may be missing. Equal values may be shown once. Some results are limits rather than exact numbers.

Regarding `CCC(C)(CCC(C)C)C(=O)O` (centres undefined) [Neodecanoic acid], the LC50 in the data set with Rattus norvegicus [1] (Inhalation, Wistar) was over 511 mg/m3; with Rattus norvegicus [1] (inhalation, Wistar), over 3 µg/mL; in the data set with Mus musculus [2] (Inhalation, Swiss albino) it was over 511 mg/m3; in the data set with Mus musculus [2] (inhalation, Swiss) it was over 3 µg/mL; in the data set on Cavia sp., over 511 mg/m3. For the same compound, the LD50 in the data set on Rattus norvegicus [1] (Inhalation, Wistar) is over 511 mg/m3; in the data set with Rattus norvegicus [1] (inhalation, Wistar), over 3 mg/L; in the data set with Mus musculus [2] (Inhalation, Swiss), over 511 mg/m3; in the data set with Mus musculus [2] (inhalation, Swiss) it was over 3 mg/L; in the data set on Oryctolagus sp. it was over 3160 mg/kg; in the data set with Oryctolagus sp. (occlusive) it was over 3160 mg/kg. The LD50 with Cavia porcellus and in the data set on Cavia sp. was over 511 mg/m3 each time. Moreover, the NOAEL in the data set on Rattus norvegicus [1] (reproduction developmental, oral, diet, Sprague-Dawley, generation: F0) was 1500 ppm; in the data set with Rattus norvegicus [1] (reproduction developmental, oral, diet, Sprague-Dawley, generation: F1), 1500 ppm; in the data set on Rattus norvegicus [1] (reproduction developmental, oral, diet, Sprague-Dawley, generation: F2) it was 1500 ppm; in the data set with Rattus norvegicus [1] (setting [16]), 48 mg/kg-day; with Oryctolagus sp. (repeat dose other, M), 2280 mg/kg-day. Besides, the lowest observed adverse effect level (LOAEL) in the data set on Rattus norvegicus [1] (setting [16]) was 144 mg/kg-day.

Turning to `ClC1=C(Cl)[C@]2(Cl)[C@H]3[C@H]([C@@H]4C=C[C@H]3C4)[C@@]1(Cl)C2(Cl)Cl` [Aldrin], the LOAEL with Rattus norvegicus [3] amounted to 0.025 mg/kg-day; with Canidae [4] (duration: 16 months, diet, M/F, Urinary) it was 0.043 mg/kg-day; with Rattus norvegicus [5] it was 0.037 mg/kg-day; in the data set with Mus musculus [6] it was 2 mg/kg-day; with Rattus norvegicus [7], 1 mg/kg-day. For the same compound, in the data set with Rattus norvegicus [7], the NOAEL turned out to be 0.2 mg/kg-day.

Take `Nc1ccc(Cc2ccc(N)c(Cl)c2)cc1Cl` [4,4'-Methylenebis(2-chloroaniline)]: in the data set with Oryctolagus sp., the LD50 is over 5000 mg/kg. Moreover, the lowest observed adverse effect level (LOAEL) in the data set on Canidae [4] (duration: 9 years, capsule, F, hepatic) came out at 7.3 mg/kg-day; in the data set with Canidae [8], 10 mg/kg-day. Besides, the LD0 in the data set with Mus musculus [9] came out at 640 mg/kg.

For the compound `[Zn]` [Zinc], the figures for the LOAEL in the data set on Homo sapiens [10] and in the data set on Homo sapiens [11] were 1 mg/kg-day and 0.91 mg/kg-day, respectively. Moreover, the NOAEL in the data set on Homo sapiens [12] is 0.83 mg/kg-day; with Homo sapiens [12] (capsule), 0.83 mg/kg-day; in the data set on Homo sapiens [13], 220 mg/day and 600 mg/day.

For the compound `CCCCCCCCCCCCCCCCCCOC(=O)CCc1cc(C(C)(C)C)c(O)c(C(C)(C)C)c1` [Octadecyl 3-(3,5-di-tert-butyl-4-hydroxyphenyl)propionate], the NOAEL in the data set on Rattus norvegicus [14] is 30 mg/kg-day; in the data set on Canidae [15], ≥ 31.5 mg/kg-day and ≤ 34.5 mg/kg-day; in the data set on Rattus norvegicus [1] (chronic, duration: 104 weeks, oral, diet, Cfy), 39 mg/kg-day; with Rattus norvegicus [1] (developmental, duration: 10 days, oral, gavage, Sprague-Dawley) it was over 1000 mg/kg-day; with Rattus norvegicus [1] (reproduction developmental, duration: 10 months, oral, diet, COBS(R)CD(R), generation: F0), 1500 ppm; in the data set on Rattus norvegicus [1] (reproduction developmental, duration: 10 months, oral, diet, COBS(R)CD(R), generation: F1) it was under 500 ppm. Further, the NOAEL with Rattus norvegicus [1] (reproduction developmental, duration: 10 months, oral, diet, COBS(R)CD(R), generation: F2) is under 500 ppm; with Rattus norvegicus [1] (reproduction developmental, duration: 10 days, oral, gavage, F, Sprague-Dawley), 150 mg/kg-day; with Rattus norvegicus [1] (reproduction developmental, duration: 10 days, oral, gavage, generation: F0), 150 mg/kg-day; in the data set on Rattus norvegicus [1] (reproduction developmental, oral, diet, F), 1500 ppm; in the data set on Rattus norvegicus [1] (reproduction developmental, oral, diet, generation: F0), 1500 ppm; in the data set on Rattus norvegicus [1] (short-term, duration: 21 days, inhalation, RAI f (SPF)), over 0.543 mg/L. The NOAEL is 1000 mg/kg-day in the data set on Rattus norvegicus [1] (short-term, duration: 28 days, oral, diet, F); 100 mg/kg-day in the data set on Rattus norvegicus [1] (short-term, duration: 28 days, oral, diet, M); 30 mg/kg-day in the data set on Rattus norvegicus [1] (short-term, duration: 28 days, oral, gavage, Sprague-Dawley); over 1000 mg/kg-day with Mus musculus [2] (developmental); 500 mg/kg-day in the data set on Mus musculus [2] (reproduction developmental, F). The LD50 in the data set on Cricetulus sp. is over 6000 mg/kg; in the data set on Rattus norvegicus [1] (injection, Intraperitoneal), over 1000 mg/kg; in the data set with Rattus norvegicus [1] (injection, intraperitoneal), over 1000 mg/kg; in the data set on Rattus norvegicus [1] (oral), over 5000 mg/kg; in the data set on Oryctolagus sp., over 2000 mg/kg. Besides, the LC50 was over 1.8 µg/mL in the data set with Rattus norvegicus [1] (inhalation) and over 1.8 µg/mL in the data set on Rattus norvegicus [1] (inhalation, particle). The LOAEL with Rattus norvegicus [1] (developmental, oral, diet) is 500 ppm.

Broadly, the NOAEL is the highest dose or exposure tested at which no adverse effect was seen. In general, LOAEL refers to the lowest dose or exposure tested at which an adverse effect was seen.
